Source: the supplement of paper PMC10307832

Experiments:
Assay in all cases: relative viability (nuclei count vs DMSO), 5 days (fraction); higher = more cells survive
Cabozantinib + OSI-027 = compound: COc1cc2nccc(Oc3ccc(NC(=O)C4(C(=O)Nc5ccc(F)cc5)CC4)cc3)c2cc1OC [Cabozantinib] + COc1cccc2cc(-c3nc([C@H]4CC[C@H](C(=O)O)CC4)n4ncnc(N)c34)[nH]c12 [OSI-027] (partner 0.5 µM)
How it was run: (§1)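 Lung cancer cell lines in 1536-well plates were dosed by pin tool the day after seeding, either with one drug alone or with a fixed anchor-drug dose plus five library-drug doses (not always all listed) in √10 steps. After 5 days, cells were fixed and their nuclei stained in one step (final 0.05% Triton X-100, 1% formaldehyde, 1 ug/ml Hoechst), then counted on 4× images. Relative viability is the nuclei count in treated wells divided by that in vehicle wells. Values are medians of duplicate plates.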

Zosuquidar + Alpelisib = compound: O[C@@H](COc1cccc2ncccc12)CN1CCN([C@@H]2c3ccccc3[C@@H]3[C@H](c4ccccc42)C3(F)F)CC1 [Zosuquidar] + Cc1nc(NC(=O)N2CCC[C@H]2C(N)=O)sc1-c1ccnc(C(C)(C)C(F)(F)F)c1 [Alpelisib] (partner 2 µM)
How it was run: as §1

Kobe2602 + Vorinostat = compound: C1=CC(=CC=C1NC(=S)NNC2=C(C=C(C=C2[N+](=O)[O-])C(F)(F)F)[N+](=O)[O-])F [Kobe2602] + O=C(CCCCCCC(=O)Nc1ccccc1)NO [Vorinostat] (partner 1 µM)
How it was run: as §1

Kobe2602 + OSI-027 = compound: C1=CC(=CC=C1NC(=S)NNC2=C(C=C(C=C2[N+](=O)[O-])C(F)(F)F)[N+](=O)[O-])F [Kobe2602] + COc1cccc2cc(-c3nc([C@H]4CC[C@H](C(=O)O)CC4)n4ncnc(N)c34)[nH]c12 [OSI-027] (partner 0.5 µM)
How it was run: as §1

Cell Line | relative viability (Cabozantinib + OSI-027; first compound 0.02 µM) | relative viability (Cabozantinib + OSI-027; first compound 0.06325 µM) | relative viability (Cabozantinib + OSI-027; first compound 0.2 µM) | relative viability (Cabozantinib + OSI-027; first compound 0.6325 µM) | relative viability (Cabozantinib + OSI-027; first compound 2 µM) | relative viability (Zosuquidar + Alpelisib; first compound 0.01 µM) | relative viability (Zosuquidar + Alpelisib; first compound 0.03162 µM) | relative viability (Zosuquidar + Alpelisib; first compound 0.1 µM) | relative viability (Zosuquidar + Alpelisib; first compound 0.3162 µM) | relative viability (Zosuquidar + Alpelisib; first compound 1 µM) | relative viability (Kobe2602 + Vorinostat; first compound 0.2 µM) | relative viability (Kobe2602 + Vorinostat; first compound 0.6325 µM) | relative viability (Kobe2602 + Vorinostat; first compound 2 µM) | relative viability (Kobe2602 + Vorinostat; first compound 6.325 µM) | relative viability (Kobe2602 + Vorinostat; first compound 20 µM) | relative viability (Kobe2602 + OSI-027; first compound 0.2 µM) | relative viability (Kobe2602 + OSI-027; first compound 0.6325 µM) | relative viability (Kobe2602 + OSI-027; first compound 2 µM) | relative viability (Kobe2602 + OSI-027; first compound 6.325 µM) | relative viability (Kobe2602 + OSI-027; first compound 20 µM)
SK-LU-1 | 0.3 | 0.37 | 0.394 | 0.298 | 0.312 | 0.954 | 1.04 | 1.17 | 1.26 | 0.895 | 0.734 | 0.86 | 0.856 | 0.836 | 0.823 | 0.329 | 0.365 | 0.359 | 0.327 | 0.371
NCI-H2126 | – | 0.798 | 0.706 | 0.71 | 0.884 | 0.755 | 0.741 | 0.554 | 0.837 | 0.797 | 0.811 | 0.819 | 0.737 | 0.76 | 0.855 | 0.715 | 0.778 | 0.675 | 0.678 | 0.701
LXF-289 | 0.612 | 0.856 | 0.753 | 0.816 | 0.78 | 0.994 | 1.04 | 0.97 | 1.02 | 1.01 | 0.677 | 0.776 | 0.75 | 0.659 | 0.775 | 0.836 | 0.836 | 0.777 | 0.879 | 0.87
BEN | 0.314 | 0.311 | 0.28 | 0.299 | 0.24 | 1.07 | 0.968 | 0.815 | 1 | 1.21 | 0.634 | 0.606 | 0.581 | 0.56 | 0.625 | 0.295 | 0.293 | 0.326 | 0.282 | 0.319
LCLC-97TM1 | 0.153 | 0.572 | 0.448 | 0.57 | 0.689 | 0.187 | 0.237 | – | 0.224 | 0.234 | 0.692 | 0.893 | – | 0.964 | 0.722 | 0.475 | 0.488 | 0.551 | 0.556 | 0.584
NCI-H1993 | 0.511 | 0.528 | 0.569 | 0.519 | 0.543 | 0.628 | 0.725 | 0.625 | 0.674 | 0.705 | 0.737 | 0.817 | 0.782 | 0.586 | 0.728 | 0.552 | 0.511 | 0.544 | 0.569 | 0.597
NCI-H596 | 0.922 | 0.738 | 0.65 | 0.667 | 0.54 | 0.467 | 0.512 | 0.502 | 0.589 | 0.591 | 0.591 | 0.726 | 0.63 | 0.659 | 0.68 | 0.802 | 0.698 | 0.661 | 0.56 | 0.815
LCLC-103H | 0.344 | 0.561 | 0.487 | 0.509 | 0.394 | 1.02 | 1.12 | 1.01 | 1.02 | 0.926 | 0.802 | 0.813 | 0.776 | 0.839 | 0.81 | 0.466 | 0.539 | 0.492 | 0.448 | 0.497
HCC-78 | – | 0.439 | 0.287 | 0.291 | 0.258 | 0.343 | 0.313 | – | 0.325 | 0.379 | 0.485 | 0.444 | 0.433 | 0.452 | 0.507 | 0.39 | 0.375 | 0.722 | 0.385 | 0.44
NCI-H1975 | 0.676 | 0.763 | 0.668 | 0.679 | 0.543 | 0.624 | 0.653 | 0.679 | 0.675 | 0.713 | 0.68 | 0.74 | 0.626 | 0.678 | 0.701 | 0.673 | 0.79 | 0.687 | 0.676 | 0.669
